Source: paper PMC10674780, “In Vitro and In Vivo Effects of Synthesis Novel Phenoxyacetamide Derivatives as Potent Apoptotic Inducer against HepG2 Cells through PARP-1 Inhibition” (Pharmaceuticals, 2023)
pIC50: −log10 of the molar value.

Target: T1, PARP-1 (Homo sapiens, UniProt P09874)
T1 construct: gene PARP1
Experiment: PARP-1 inhibition assay kit (Cat No. […])
Type: biochemical

T1 sequence (P09874 2-1014): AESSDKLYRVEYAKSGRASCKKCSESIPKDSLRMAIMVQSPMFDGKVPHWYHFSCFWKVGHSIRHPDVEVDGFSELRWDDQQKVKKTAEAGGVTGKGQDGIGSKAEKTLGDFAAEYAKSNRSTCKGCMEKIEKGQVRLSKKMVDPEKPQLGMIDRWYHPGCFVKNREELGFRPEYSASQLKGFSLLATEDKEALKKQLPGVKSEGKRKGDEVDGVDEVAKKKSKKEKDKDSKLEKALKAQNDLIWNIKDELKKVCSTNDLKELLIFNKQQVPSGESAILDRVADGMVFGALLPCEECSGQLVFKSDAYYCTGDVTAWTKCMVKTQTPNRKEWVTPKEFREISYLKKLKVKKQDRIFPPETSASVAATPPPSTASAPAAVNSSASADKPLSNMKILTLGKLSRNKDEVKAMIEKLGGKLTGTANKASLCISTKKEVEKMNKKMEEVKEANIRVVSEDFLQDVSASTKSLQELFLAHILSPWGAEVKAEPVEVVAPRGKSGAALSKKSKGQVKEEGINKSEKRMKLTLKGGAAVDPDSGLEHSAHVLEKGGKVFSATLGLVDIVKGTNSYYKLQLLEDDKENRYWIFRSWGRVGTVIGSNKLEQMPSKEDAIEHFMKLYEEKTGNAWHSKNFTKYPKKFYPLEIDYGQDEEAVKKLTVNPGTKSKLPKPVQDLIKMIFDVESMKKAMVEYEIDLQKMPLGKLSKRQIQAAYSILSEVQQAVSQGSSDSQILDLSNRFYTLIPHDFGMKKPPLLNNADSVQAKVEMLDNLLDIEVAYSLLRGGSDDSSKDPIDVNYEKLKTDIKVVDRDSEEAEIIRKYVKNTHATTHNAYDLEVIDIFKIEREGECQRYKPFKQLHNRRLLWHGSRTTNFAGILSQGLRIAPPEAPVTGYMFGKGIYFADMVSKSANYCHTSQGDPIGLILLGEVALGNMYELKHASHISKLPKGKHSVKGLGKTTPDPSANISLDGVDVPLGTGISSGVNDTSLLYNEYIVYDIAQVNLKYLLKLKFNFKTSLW

## NNC(=O)CNC(=O)COc1cc(Cl)c(Cl)cc1Cl [I, N-(2-hydrazineyl-2-oxoethyl)-2-(2.4.5-trichlorophenoxy) acetamide]
  pIC50: 8.82
